Test results: ChEMBL document CHEMBL1157461, “Potent non-nucleoside inhibitors of the measles virus RNA-dependent RNA polymerase complex” (J Med Chem, 2008)

Tested on: Measles morbillivirus
Assay: Antiviral activity against Measles virus Alaska in Vero cells assessed as inhibition of cytopathic effect
Assay type: functional, organism-based
Details: not given

Row | SMILES | EC50 [µM]
1 | Cn1nc(C(F)(F)F)cc1C(=O)Nc1ccc(S(=O)(=O)n2ccc3ccccc32)cc1 | > 13
2 | CC1CCN(S(=O)(=O)c2ccc(NC(=O)c3cc(C(F)(F)F)nn3C)cc2)CC1 | < 2.3
3 | CC1CCCCN1S(=O)(=O)c1cccc(NC(=O)c2cc(C(F)(F)F)nn2C)c1 (stereo not drawn) | > 75
4 | Cn1nc(C(F)(F)F)cc1C(=O)Nc1ccc(S(=O)(=O)OC2CCCCC2)cc1 | > 75
5 | CC1CCCCN1S(=O)(=O)c1ccc(NC(=O)c2cc(C(F)(F)F)nn2C)cc1 (stereo not drawn) | < 2.3
6 | Cn1nc(C(F)(F)F)cc1C(=O)Nc1ccc(S(=O)(=O)NC2CCCCC2)cc1 | > 15
7 | CCCN(CCC)S(=O)(=O)c1ccc(NC(=O)c2cc(C(F)(F)F)nn2C)cc1 | < 2.3
8 | CC1CCCC(C)N1S(=O)(=O)c1ccc(NC(=O)c2cc(C(F)(F)F)nn2C)cc1 (stereo not drawn) | < 2.3
9 | Cn1nc(C(F)(F)F)cc1C(=O)Nc1ccc(S(=O)(=O)N2CCCCC2C(=O)O)cc1 (stereo not drawn) | > 75
10 | Cn1nc(C(F)(F)F)cc1C(=O)Nc1ccc(S(=O)(=O)N2CCC(C(F)(F)F)CC2)cc1 | 2.3
11 | Cn1nc(C(F)(F)F)cc1C(=O)Nc1ccc(S(=O)(=O)N2CCCCCCC2)cc1 | < 2.3
12 | Cn1nc(C(F)(F)F)cc1C(=O)Nc1ccc(S(=O)(=O)N2CCC(NC(=O)OC(C)(C)C)CC2)cc1 | 14.1
13 | Cn1nc(C(F)(F)F)cc1C(=O)Nc1ccc(S(=O)(=O)N2CCCCC2C(=O)OC(C)(C)C)cc1 (stereo not drawn) | > 38
14 | CC1CCCCN1S(=O)(=O)c1ccc(NC(=O)c2cc(C(F)(F)F)nn2C(C)C)cc1 (stereo not drawn) | > 75
15 | Cn1nc(C(F)(F)F)cc1C(=O)Nc1ccc(S(=O)(=O)N2CCN(C(=O)OC(C)(C)C)CC2)cc1 | > 75
16 | Cn1nc(C(F)(F)F)cc1C(=O)Nc1ccc(S(=O)(=O)N2CCCCC2CO)cc1 (stereo not drawn) | < 2.3
17 | CCN(CC)S(=O)(=O)c1ccc(NC(=O)c2cc(C(F)(F)F)nn2C)cc1 | < 2.3
18 | Cn1nc(C(F)(F)F)cc1C(=O)Nc1ccc(S(=O)(=O)N2CCN(CCOCCO)CC2)cc1 | > 75
19 | COC(=O)c1ccccc1-n1nc(C(F)(F)F)cc1C(=O)Nc1ccc(S(=O)(=O)N2CCCC2)cc1 | > 75
20 | CC(C)N(C(C)C)S(=O)(=O)c1ccc(NC(=O)c2cc(C(F)(F)F)nn2C)cc1 | 3.5
21 | Cn1nc(C(F)(F)F)cc1C(=O)Nc1ccc(S(=O)(=O)N2CCCCCC2)cc1 | < 2.3
22 | CN(C(=O)c1cc(C(F)(F)F)nn1C)c1ccc(S(=O)(=O)N2CCCCC2)cc1 | > 75

Tested on: Measles morbillivirus
Assay: Antiviral activity against Measles virus Alaska in Vero cells assessed as reduction of viral titer
Assay type: functional, organism-based
Details: not given

Row | SMILES | EC50 [µM]
23 | CC1CCN(S(=O)(=O)c2ccc(NC(=O)c3cc(C(F)(F)F)nn3C)cc2)CC1 | 0.035
24 | CC1CCCCN1S(=O)(=O)c1ccc(NC(=O)c2cc(C(F)(F)F)nn2C)cc1 (stereo not drawn) | 0.029
25 | CCCN(CCC)S(=O)(=O)c1ccc(NC(=O)c2cc(C(F)(F)F)nn2C)cc1 | 0.19
26 | CC1CCCC(C)N1S(=O)(=O)c1ccc(NC(=O)c2cc(C(F)(F)F)nn2C)cc1 (stereo not drawn) | 0.014
27 | Cn1nc(C(F)(F)F)cc1C(=O)Nc1ccc(S(=O)(=O)N2CCC(C(F)(F)F)CC2)cc1 | 0.02
28 | Cn1nc(C(F)(F)F)cc1C(=O)Nc1ccc(S(=O)(=O)N2CCCCCCC2)cc1 | 0.045
29 | Cn1nc(C(F)(F)F)cc1C(=O)Nc1ccc(S(=O)(=O)N2CCCCC2CO)cc1 (stereo not drawn) | 0.85
30 | CCN(CC)S(=O)(=O)c1ccc(NC(=O)c2cc(C(F)(F)F)nn2C)cc1 | 0.019
31 | COC(=O)c1ccccc1-n1nc(C(F)(F)F)cc1C(=O)Nc1ccc(S(=O)(=O)N2CCCC2)cc1 | > 75
32 | CC(C)N(C(C)C)S(=O)(=O)c1ccc(NC(=O)c2cc(C(F)(F)F)nn2C)cc1 | 0.53
33 | Cn1nc(C(F)(F)F)cc1C(=O)Nc1ccc(S(=O)(=O)N2CCCCCC2)cc1 | 0.005

Tested on: not listed separately
Assay: Cytotoxicity against african green monkey Vero cells by MTT assay
Assay type: cell-based
Details: chlorocebus sabaeus

Row | SMILES | CC50 [µM]
34 | CC1CCN(S(=O)(=O)c2ccc(NC(=O)c3cc(C(F)(F)F)nn3C)cc2)CC1 | > 300
35 | CC1CCCCN1S(=O)(=O)c1cccc(NC(=O)c2cc(C(F)(F)F)nn2C)c1 (stereo not drawn) | 84
36 | Cn1nc(C(F)(F)F)cc1C(=O)Nc1ccc(S(=O)(=O)OC2CCCCC2)cc1 | > 300
37 | CC1CCCCN1S(=O)(=O)c1ccc(NC(=O)c2cc(C(F)(F)F)nn2C)cc1 (stereo not drawn) | > 300
38 | Cn1nc(C(F)(F)F)cc1C(=O)Nc1ccc(S(=O)(=O)NC2CCCCC2)cc1 | 15
39 | CCCN(CCC)S(=O)(=O)c1ccc(NC(=O)c2cc(C(F)(F)F)nn2C)cc1 | > 300
40 | CC1CCCC(C)N1S(=O)(=O)c1ccc(NC(=O)c2cc(C(F)(F)F)nn2C)cc1 (stereo not drawn) | > 300
41 | Cn1nc(C(F)(F)F)cc1C(=O)Nc1ccc(S(=O)(=O)N2CCCCC2C(=O)O)cc1 (stereo not drawn) | > 300
42 | Cn1nc(C(F)(F)F)cc1C(=O)Nc1ccc(S(=O)(=O)N2CCC(C(F)(F)F)CC2)cc1 | 159
43 | Cn1nc(C(F)(F)F)cc1C(=O)Nc1ccc(S(=O)(=O)N2CCCCCCC2)cc1 | 16
44 | Cn1nc(C(F)(F)F)cc1C(=O)Nc1ccc(S(=O)(=O)N2CCC(NC(=O)OC(C)(C)C)CC2)cc1 | > 300
45 | Cn1nc(C(F)(F)F)cc1C(=O)Nc1ccc(S(=O)(=O)N2CCCCC2C(=O)OC(C)(C)C)cc1 (stereo not drawn) | 38
46 | CC1CCCCN1S(=O)(=O)c1ccc(NC(=O)c2cc(C(F)(F)F)nn2C(C)C)cc1 (stereo not drawn) | > 300
47 | Cn1nc(C(F)(F)F)cc1C(=O)Nc1ccc(S(=O)(=O)N2CCN(C(=O)OC(C)(C)C)CC2)cc1 | > 300
48 | CCN(CC)S(=O)(=O)c1ccc(NC(=O)c2cc(C(F)(F)F)nn2C)cc1 | > 300
49 | Cn1nc(C(F)(F)F)cc1C(=O)Nc1ccc(S(=O)(=O)N2CCN(CCOCCO)CC2)cc1 | > 300
50 | CC(C)N(C(C)C)S(=O)(=O)c1ccc(NC(=O)c2cc(C(F)(F)F)nn2C)cc1 | > 300
51 | Cn1nc(C(F)(F)F)cc1C(=O)Nc1ccc(S(=O)(=O)N2CCCCCC2)cc1 | > 300
52 | CN(C(=O)c1cc(C(F)(F)F)nn1C)c1ccc(S(=O)(=O)N2CCCCC2)cc1 | 286

Tested on: not listed separately
Assay: Cytotoxicity against african green monkey Vero cells by trypan blue exclusion assay
Assay type: cell-based
Details: chlorocebus sabaeus

Row | SMILES | CC50 [µM]
53 | CC1CCN(S(=O)(=O)c2ccc(NC(=O)c3cc(C(F)(F)F)nn3C)cc2)CC1 | 53
54 | CC1CCCCN1S(=O)(=O)c1ccc(NC(=O)c2cc(C(F)(F)F)nn2C)cc1 (stereo not drawn) | 54
55 | CC1CCCC(C)N1S(=O)(=O)c1ccc(NC(=O)c2cc(C(F)(F)F)nn2C)cc1 (stereo not drawn) | 328
56 | CCN(CC)S(=O)(=O)c1ccc(NC(=O)c2cc(C(F)(F)F)nn2C)cc1 | 280
57 | COC(=O)c1ccccc1-n1nc(C(F)(F)F)cc1C(=O)Nc1ccc(S(=O)(=O)N2CCCC2)cc1 | > 300
58 | Cn1nc(C(F)(F)F)cc1C(=O)Nc1ccc(S(=O)(=O)N2CCCCCC2)cc1 | 425
